These results are taken from patent US20030125287A1, “Antisense oligonucleotides and methods to induce tumor cell death” (Hybridon, Inc., priority 2001, published 2003).

Holding throughout (type): cell-based, human
For one data set, the system named is TC620 cells. The experiment in a line: TUNEL assay in TC620 cells. How it is done:
To confirm the results of the PARP data that survivin down-regulation induced apoptosis, a TUNEL assay was performed. The TUNEL reaction preferentially labels cleaved genomic DNA generated during apoptosis, by the addition of fluorescein dUTP at strand breaks. The TUNEL assay was performed on lipofectin, mismatch oligonucleotide 1132, and survivin antisense oligonucleotide-treated TC620 cells. The percentages of TUNEL-positive cells treated with survivin antisense oligonucleotides 904 or 906 at 400 nM concentration were 52% and 54%, respectively. At 600 nM, 63% of survivin antisense oligonucleotide 904- and 906-treated TC620 cells were TUNEL-positive. Only 4% of the cells were TUNEL-positive in the presence of lipofectin or mismatch oligonucleotide 1132.
The TUNEL assay was performed to assess apoptotic cell death in survivin antisense oligonucleotide-treated TC620 cells using the In Situ Cell Death Detection Kit, Fluorescein (Roche Molecular Biochemicals, Indianapolis, Ind.). The TUNEL reaction preferentially labels cleaved genomic DNA generated during apoptosis, by the addition of fluorescein dUTP at strand breaks. Lipofectin, mismatch oligonucleotide 1132 or survivin antisense oligonucleotide-treated TC620 cells were fixed and permeabilized as described for PI staining. Cells were washed and incubated in the TUNEL reaction mixture, prepared according to the manufacture's recommendations, for 1 h at 37° C. Omission of the terminal deoxynucleotidyl transferase in the label solution served as a negative control for the TUNEL fluorescence staining. Cells were washed twice and counterstained with the DNA specific dye DAPI (1:1000 of a 1 mg/ml stock; 15 min at room temperature). Cells were examined with an Olympus 1×70 inverted microscope. For each treatment 15 random, 40×objective fields consisting of about 1000 cells were examined in duplicate chamber slides. TUNEL-positive nuclei were expressed as a percent of the total number of cells per individual field.

Data set [1] has as its system apoptosis-inducing factor (AIF). The experiment in a line: AIF immunostaining and DAPI double-labeling of MSN cells. Particulars: for AIF localization: 600 nM (FIGS. 9H-9K). How it is done:
To examine whether down-regulation of survivin induces AIF nuclear translocation, AIF and DAPI double-labeling was performed on MSN cells treated with lipofectin (FIG. 9H), or 600 nM survivin antisense oligonucleotide 904 (FIG. 9I), mismatch oligonucleotide 1132 (FIG. 9J), or survivin antisense oligonucleotide 906 (FIG. 9K).
Lipofectin, mismatch oligonucleotide 1132 or survivin antisense oligonucleotide-treated MSN cells were fixed and permeabilized as described for PI staining, and blocked for 1 h at room temperature with 10% normal goat serum in 5% non-fat, dry milk in 1×TBS. […] Omission of the primary antibody confirmed that the immunostaining was specific. Cells were counterstained with the DNA-specific dye DAPI (1:1000 of a 1 mg/ml stock; 15 min at room temperature). Cells were examined with an Olympus 1×70 inverted microscope. Fluorescent images were collected using a 12-bit Photometrics cooled CCD camera. For each treatment, 15 random, 40×objective fields consisting of about 600 cells were examined. TRITC (red) and DAPI (blue) stained cells were scored as having AIF staining either in the mitochondria or the nucleus relative to the total number examined. In parallel, the DAPI stained nuclei were also scored as normal, condensed, or abnormal nuclei. Experiments were performed in duplicate.

For a further data set, the system named is MSN cells. The experiment in a line: Trypan blue assay (cell death) in MSN cells. The following applies: for percentage of cells Trypan blue positive: MSN cells. How it is done:
The role of survivin as an inhibitor of apoptosis and as a survival protein for tumors was investigated by examining whether the down-regulation of survivin was sufficient to induce cell death in MSN cells. Following transfection with lipofectin, different concentrations of survivin antisense oligonucleotide 904 (200 nM, 400 nM, 600 nM), or the mismatched oligonucleotide 1132 (400 nM and 600 nM), the number of Trypan blue positive cells (only dead cells are stained by the Trypan blue stain) were counted 48 hours after treatment. The number of dead cells was assessed relative to the lipofectin-treated control cells. In the presence of 200 nM, 400 nM, and 600 nM concentrations of antisense oligonucleotide 904, the percentage of cells that were Trypan blue positive were 52%, 59% and 62%, respectively (FIG. 4A). The mismatched oligonucleotide 1132 (400 nM and 600 nM) was similar to the lipofectin control treatment, wherein 23% (400 nM) and 22% (600 nM) of the cells were Trypan blue-positive. About 6% of the cells in the untreated control were Trypan blue positive.
In another experiment, following transfection with lipofectin, mismatched oligonucleotide 1132 (600 nM), or survivin antisense oligonucleotide 904 or 906 (600 nM), the numbers of Trypan blue positive cells (dead cells) were counted 48 h post-treatment. In the presence of 600 nM survivin antisense oligonucleotide 904 and 906, the percentages of cells that were Trypan blue positive were 73% and 81%, respectively (FIG. 4B). Upon treatment with lipofectin or the mismatched oligonucleotide 1132, only 7-11% of the cells were Trypan blue positive.
Further experiments were conducted to examine whether survivin antisense oligonucleotide-induced cell death could be blocked by the broad-spectrum caspase inhibitor zVAD-fmk. MSN cells were treated with lipofectin or 600 nM survivin antisense oligonucleotide 904, 906, or mismatch oligonucleotide 1132 alone, or co-treated with 20 μM zVAD-fmk for 48 h, and stained with 0.04% Trypan blue.
Cells were harvested 48 hours after survivin antisense treatment, stained with 0.04% Trypan blue (GIBCO), and counted on a hemocytometer. The number of Trypan blue positive cells relative to the total number of cells in each field was obtained and the data were expressed as a percentage of dead cells relative to the total cell number. Individual experiments were performed in triplicate. MSN cell studies were performed three times, while studies in TC620 cells were performed once.

The mark [2] stands for this setting: 600 nM co-treated with 20 μM zVAD-fmk, 48 h (FIG. 4B).

Oligonucleotides are written 5' to 3', each unit as a sugar letter and its base; * is a phosphorothioate linkage, no mark a phosphodiester; rarer units and linkages stand in square brackets, end groups in braces. Plain capitals give the bases only. d = 2'-deoxy (DNA)

Take “d(TCTTGGCTCTTTCTCTGTCC) (antisense dT*dC*dT*dT*dG*dG*dC*dT*dC*dT*dT*dT*dC*dT*dC*dT*dG*dT*dC*dC) [Oligo 904, 20-mer phosphorothioate survivin antisense oligonucleotide, complementary to survivin mRNA 5248-5267]”: the “percentage of TUNEL-positive cells” value with TC620 cells (400 nM) is listed as 52%; in the data set with TC620 cells (600 nM), 63%. Moreover, the “AIF localization” value in data set [1] is “nuclear translocation of AIF”. Besides, the “cell death, Trypan blue positive cells” value with MSN cells (MSN cells (FIG. 4A)) is recorded as “dose-dependent increase in cell death”. Moreover, the “percentage of cells Trypan blue positive” value in the data set with MSN cells (200 nM, 48 hours (FIG. 4A)) came to 52%; in the data set on MSN cells (400 nM, 48 hours (FIG. 4A)), 59%; in the data set with MSN cells (600 nM alone, 48 h (FIG. 4B)) it was 73%; with MSN cells (setting [2]), 73%; in the data set on MSN cells (600 nM, 48 hours (FIG. 4A)), 62%.
In the case of “d(GCTTCCCAGTCACATCCTGT) (antisense dG*dC*dT*dT*dC*dC*dC*dA*dG*dT*dC*dA*dC*dA*dT*dC*dC*dT*dG*dT) [Oligo 906, 20-mer phosphorothioate survivin antisense oligonucleotide, complementary to survivin mRNA 11897-11916]”, the entries for the “percentage of TUNEL-positive cells” value in the data set on TC620 cells (400 nM) and in the data set on TC620 cells (600 nM) were 54% and 63%, respectively. Also, the “AIF localization” value in data set [1] is “nuclear translocation of AIF”. Moreover, the “percentage of cells Trypan blue positive” value amounted to 81% in the data set on MSN cells (600 nM alone, 48 h (FIG. 4B)) and 74% with MSN cells (setting [2]).
In the case of “d(GCACCTAGTCTCCCTGCACC) (DNA, all phosphorothioate, methylation of C not given here) [Oligo 1132, mismatched phosphorothioate control oligonucleotide, not complementary to survivin mRNA, reference compound]”, the “percentage of TUNEL-positive cells” value with TC620 cells (concentration not given) was 4%. Also, the “percentage of cells with normal-appearing nuclei by DAPI staining” value in data set [1] (600 nM) is 95%. The “percentage of cells with nuclear localization / translocation of AIF” value in data set [1] (600 nM) was 4-8%. In data set [1], the “AIF localization” value is reported as “robust AIF staining in the cytosol”. In addition, the “percentage of cells Trypan blue positive” value in the data set on MSN cells (400 nM, 48 hours (FIG. 4A)) is listed as 23%; with MSN cells (600 nM alone, 48 h (FIG. 4B)), 7-11%; in the data set with MSN cells (600 nM, 48 hours (FIG. 4A)), 22%.
